Among the data in patent US10010623B2, “Lysosome-cleavable linker” (UCL Business PLC, priority 2012, dated 2018) are melting point values, retold here.

Each structure is given as a SMILES string.

Usually melting point stands for the temperature, or range, at which the solid turns liquid.

The compound `O=C1OC(=O)C(Br)=C1Br` [compound 1, 2,3-dibromo-maleic anhydride] yielded a melting point of 107 to 110 °C.
